Where a chain is given by its changes, count along the chain named.
Columns and labels:
Test in all cases: GCMS product formation, yeast microsomes
Type in all cases: biochemical
SaCYP76F41 = target: T1, SaCYP76F41 (Santalum album, UniProt V5RFE4); conditions: substrate in mixture of santalenes and α-exo-bergamotene, 40 µM, NADPH 0.8 mM, pH 7.5, 30°C, 2 h, with SaCPR
T1 construct: gene CYP76F41; full-length cDNA in pYEDP60, yeast BY4741 microsomes, co-expressed with S. album CPR2 (KC842188)
T1 sequence (V5RFE4 1-509): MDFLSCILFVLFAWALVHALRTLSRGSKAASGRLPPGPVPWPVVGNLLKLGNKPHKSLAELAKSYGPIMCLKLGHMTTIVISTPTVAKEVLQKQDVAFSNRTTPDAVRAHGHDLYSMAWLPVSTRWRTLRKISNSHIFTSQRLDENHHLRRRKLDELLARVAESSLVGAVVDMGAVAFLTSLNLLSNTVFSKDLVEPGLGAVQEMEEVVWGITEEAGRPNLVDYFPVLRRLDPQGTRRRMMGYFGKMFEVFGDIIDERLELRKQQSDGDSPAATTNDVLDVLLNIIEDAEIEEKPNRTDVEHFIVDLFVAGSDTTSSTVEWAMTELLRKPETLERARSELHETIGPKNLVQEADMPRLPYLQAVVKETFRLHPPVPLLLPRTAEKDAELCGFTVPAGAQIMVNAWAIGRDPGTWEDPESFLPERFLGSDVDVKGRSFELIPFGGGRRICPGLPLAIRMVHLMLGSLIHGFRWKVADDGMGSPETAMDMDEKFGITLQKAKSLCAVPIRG

SaCYP76F39v2 = target: T2, SaCYP76F39v2 (Santalum album, UniProt V5RGD0); conditions: substrate in mixture of santalenes and α-exo-bergamotene, 40 µM, NADPH 0.8 mM, pH 7.5, 30°C, 2 h, with SaCPR
T2 construct: gene CYP76F39v2; full-length cDNA in pYEDP60, yeast BY4741 microsomes, co-expressed with S. album CPR2 (KC842188)
T2 sequence (V5RGD0 1-509): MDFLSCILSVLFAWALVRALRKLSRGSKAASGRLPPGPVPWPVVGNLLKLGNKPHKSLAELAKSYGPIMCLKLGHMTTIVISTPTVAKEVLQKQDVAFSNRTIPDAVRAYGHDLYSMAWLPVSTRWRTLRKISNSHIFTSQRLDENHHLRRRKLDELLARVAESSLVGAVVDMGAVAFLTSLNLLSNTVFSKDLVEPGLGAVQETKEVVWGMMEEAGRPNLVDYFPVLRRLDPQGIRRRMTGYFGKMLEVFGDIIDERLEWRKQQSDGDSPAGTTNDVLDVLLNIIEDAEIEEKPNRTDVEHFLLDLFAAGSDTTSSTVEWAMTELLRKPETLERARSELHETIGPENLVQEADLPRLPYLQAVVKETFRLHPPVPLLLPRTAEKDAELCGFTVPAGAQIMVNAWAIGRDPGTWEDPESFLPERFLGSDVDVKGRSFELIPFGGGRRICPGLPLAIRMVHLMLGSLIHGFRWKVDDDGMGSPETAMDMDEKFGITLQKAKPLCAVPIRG

SaCYP76F37v1 = target: T3, SaCYP76F37v1 (Santalum album, UniProt V5RGC8); conditions: NADPH 0.8 mM; potassium phosphate pH 7.5; 30°C; 20 min; with SaCPR; TLC-enriched substrate; read-out: apparent Km
T3 construct: gene CYP76F37v1; full-length cDNA in pYEDP60, yeast BY4741 microsomes, co-expressed with S. album CPR2 (KC842188)

SaCYP76F39v1 = target: T4, SaCYP76F39v1 (Santalum album, UniProt V5RH69); conditions: NADPH 0.8 mM; potassium phosphate pH 7.5; 30°C; 20 min; with SaCPR; TLC-enriched substrate; read-out: apparent Km
T4 construct: gene CYP76F39v1; full-length cDNA in pYEDP60, yeast BY4741 microsomes, co-expressed with S. album CPR2 (KC842188)
T4 sequence (V5RH69 1-509): T2 sequence (V5RGD0 1-509) with S9F, R21P, K22T, I103T, Y110H

[1] = products (Z)- and (E)-α-santalol
[2] = products (Z)- and (E)-β-santalol

T3 sequence (V5RGC8 1-509): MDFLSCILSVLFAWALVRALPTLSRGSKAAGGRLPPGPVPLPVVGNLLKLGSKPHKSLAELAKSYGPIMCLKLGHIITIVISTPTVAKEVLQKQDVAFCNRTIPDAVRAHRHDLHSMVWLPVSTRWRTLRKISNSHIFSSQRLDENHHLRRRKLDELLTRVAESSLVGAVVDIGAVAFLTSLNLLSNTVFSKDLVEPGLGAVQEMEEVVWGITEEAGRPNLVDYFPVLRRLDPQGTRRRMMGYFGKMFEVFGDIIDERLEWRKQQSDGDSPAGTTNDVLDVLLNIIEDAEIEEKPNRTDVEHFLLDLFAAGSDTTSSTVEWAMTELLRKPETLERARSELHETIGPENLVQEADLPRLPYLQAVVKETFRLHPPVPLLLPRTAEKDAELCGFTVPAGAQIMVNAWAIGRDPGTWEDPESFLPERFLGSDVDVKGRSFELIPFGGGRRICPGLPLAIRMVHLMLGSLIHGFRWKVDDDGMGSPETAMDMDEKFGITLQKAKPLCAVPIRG

Row | Km (SaCYP76F37v1) | Km (SaCYP76F39v1) | Compound | GCMS product formation, yeast microsomes (SaCYP76F41; [1]) | GCMS product formation, yeast microsomes (SaCYP76F39v2; [1]) | GCMS product formation, yeast microsomes (SaCYP76F41; [2]) | GCMS product formation, yeast microsomes (SaCYP76F39v2; [2])
1 | – | – | CC(C)=CCCC1(C)C2CC3C(C2)C31C (stereo not drawn) [compound 1, α-santalene] | gave product profiles similar to that observed with CYP76F39v1 | gave product profiles similar to that observed with CYP76F39v1 | – | –
2 | 157 µM | 34.8 µM | C=C1[C@@H]2CC[C@@H](C2)[C@@]1(C)CCC=C(C)C [compound 4, β-santalene] | – | – | gave product profiles similar to that observed with CYP76F39v1 | gave product profiles similar to that observed with CYP76F39v1
